According to PMC5811606, “Characterization of ^111In-labeled Glucose-Dependent Insulinotropic Polypeptide as a Radiotracer for Neuroendocrine Tumors” (Scientific Reports, 2018):
Like-named read-outs stand apart in the source and are kept apart here.

Experiment: Peptide dose escalation study, BHK-GIPR tumor mice
Type: in vivo, BALB/c nude mice
Conditions: female, iv, total radioactivity; for tissue to tissue ratio at 4 h: read-out: Tumor/Blood
Protocol: All animal experiments were approved by the Animal Welfare Body of the Radboud University, Nijmegen, The Netherlands and carried out in accordance with their guidelines. Six to eight weeks old, female BALB/c nude mice and C3H mice were purchased from Janvier labs (Le Genest Saint Isle, France). For all in vivo experiments, 6-8 weeks old female BALB/c nude mice were injected subcutaneously in the right shoulder with 0.2 ml of a 2.5 × 10^7 cells/ml suspension of BHK-GIPR transfected cells or with 0.2 ml of a 2.5 × 10^7 cells/ml suspension of NES2Y cells mixed with matrigel (2:1) in the right shoulder. When the tumor reached a diameter of 2-5 mm, mice were randomly divided in groups.
To determine the optimal peptide dose of [Lys^37(DTPA)]N-acetyl-GIP1-42, BHK-GIPR transfected tumor bearing BALB/c nude mice (n = 5/group) were injected intravenously with approximately 3 MBq [Lys^37(^111In-DTPA)]N-acetyl-GIP1-42 (0.05 µg) in the tail vein and were co-injected with escalating amounts of unlabeled [Lys^37(DTPA)]N-acetyl-GIP1-42 (0.05 µg – 1.95 µg), resulting in final peptide doses ranging from 0.1 to 2 µg/mouse (0.02 – 0.4 nmol/mouse) (5 groups, n = 5/group). Four hours after injection, mice were euthanized by CO2/O2 suffocation and tumors and other relevant tissues (heart, muscle, lung, spleen, pancreas, kidney, liver, stomach and duodenum) were dissected, weighed and measured in a well type gamma counter. The percentage injected dose per gram of tissue (%ID/g) was determined for each tissue.

CC[C@H](C)[C@H](NC(=O)[C@H](CO)NC(=O)[C@H](Cc1ccc(O)cc1)NC(=O)[C@H](CC(=O)O)NC(=O)[C@H](CO)NC(=O)[C@@H](NC(=O)[C@H](Cc1ccccc1)NC(=O)[C@@H](NC(=O)CNC(=O)[C@H](CCC(=O)O)NC(=O)[C@H](C)NC(=O)[C@H](Cc1ccc(O)cc1)NC(C)=O)[C@@H](C)O)[C@@H](C)CC)C(=O)N[C@@H](C)C(=O)N[C@@H](CCSC)C(=O)N[C@@H](CC(=O)O)C(=O)N[C@@H](CCCCN)C(=O)N[C@H](C(=O)N[C@@H](Cc1c[nH]cn1)C(=O)N[C@@H](CCC(N)=O)C(=O)N[C@@H](CCC(N)=O)C(=O)N[C@@H](CC(=O)O)C(=O)N[C@@H](Cc1ccccc1)C(=O)N[C@H](C(=O)N[C@@H](CC(N)=O)C(=O)N[C@@H](Cc1c[nH]c2ccccc12)C(=O)N[C@@H](CC(C)C)C(=O)N[C@@H](CC(C)C)C(=O)N[C@@H](C)C(=O)N[C@@H](CCC(N)=O)C(=O)N[C@@H](CCCCN)C(=O)NCC(=O)N[C@@H](CCCCN)C(=O)N[C@@H](CCCCN)C(=O)N[C@@H](CC(N)=O)C(=O)N[C@@H](CC(=O)O)C(=O)N[C@@H](Cc1c[nH]c2ccccc12)C(=O)N[C@@H](CCCCNC(=O)CN(CCN(CCN(CC(=O)O)CC(=O)O)CC(=O)O)CC(=O)O)C(=O)N[C@@H](Cc1c[nH]cn1)C(=O)N[C@@H](CC(N)=O)C(=O)N[C@H](C(=O)N[C@H](C(=O)N[C@@H](CCC(N)=O)C(=O)O)[C@@H](C)O)[C@@H](C)CC)C(C)C)[C@@H](C)CC [[Lys^37(^111In-DTPA)]N-acetyl-GIP1-42, metal not drawn]
tissue uptake at 4 h (BALB/c nude, BHK-GIPR tumor, peptide doses ≤ 0.2 µg (0.04 nmol) per mouse, 4 hours post-injection, mean ± SD, n=5, read-out: tumor uptake): 5.2 ± 1.4 %ID/g | tissue uptake at 4 h (BALB/c nude, mouse, 0.5 ug/mouse, BHK-GIPR tumor, peptide dose 0.5 µg (0.1 nmol), 4 hours post-injection, mean ± SD, n=5, read-out: tumor uptake): 2.4 ± 0.7 %ID/g | tissue to tissue ratio at 4 h (mouse, BHK-GIPR tumor / blood, 0.1 ug/mouse, BHK-GIPR tumor BALB/c nude mice, i.v., peptide dose 0.1 µg, 4 h p.i., mean n=5): 143 | tissue to tissue ratio at 4 h (mouse, BHK-GIPR tumor / blood, 0.2 ug/mouse, BHK-GIPR tumor BALB/c nude mice, i.v., peptide dose 0.2 µg, 4 h p.i., mean n=5): 110 | tissue to tissue ratio at 4 h (mouse, BHK-GIPR tumor / blood, 0.5 ug/mouse, BHK-GIPR tumor BALB/c nude mice, i.v., peptide dose 0.5 µg, 4 h p.i., mean n=5): 52.6 | tissue to tissue ratio at 4 h (mouse, BHK-GIPR tumor / blood, 1 ug/mouse, BHK-GIPR tumor BALB/c nude mice, i.v., peptide dose 1 µg, 4 h p.i., mean n=5): 50.3 | tissue uptake at 4 h (mouse, blood, 0.1 ug/mouse, BHK-GIPR tumor BALB/c nude mice, i.v., peptide dose 0.1 µg, 4 h p.i., mean n=5, read-out: Blood uptake): 0.033 %ID/g | tissue uptake at 4 h (mouse, blood, 0.2 ug/mouse, BHK-GIPR tumor BALB/c nude mice, i.v., peptide dose 0.2 µg, 4 h p.i., mean n=5, read-out: Blood uptake): 0.047 %ID/g | tissue uptake at 4 h (mouse, blood, 0.5 ug/mouse, BHK-GIPR tumor BALB/c nude mice, i.v., peptide dose 0.5 µg, 4 h p.i., mean n=5, read-out: Blood uptake): 0.047 %ID/g | tissue uptake at 4 h (mouse, blood, 1 ug/mouse, BHK-GIPR tumor BALB/c nude mice, i.v., peptide dose 1 µg, 4 h p.i., mean n=5, read-out: Blood uptake): 0.059 %ID/g | tissue uptake at 4 h (mouse, blood, 2 ug/mouse, BHK-GIPR tumor BALB/c nude mice, i.v., peptide dose 2 µg, 4 h p.i., mean n=5, read-out: Blood uptake): 0.066 %ID/g | tissue uptake at 4 h (mouse, duodenum, 0.1 ug/mouse, BHK-GIPR tumor BALB/c nude mice, i.v., peptide dose 0.1 µg, 4 h p.i., mean n=5, read-out: Duodenum uptake): 0.486 %ID/g | tissue uptake at 4 h (mouse, duodenum, 0.2 ug/mouse, BHK-GIPR tumor BALB/c nude mice, i.v., peptide dose 0.2 µg, 4 h p.i., mean n=5, read-out: Duodenum uptake): 0.573 %ID/g | tissue uptake at 4 h (mouse, duodenum, 0.5 ug/mouse, BHK-GIPR tumor BALB/c nude mice, i.v., peptide dose 0.5 µg, 4 h p.i., mean n=5, read-out: Duodenum uptake): 0.529 %ID/g | tissue uptake at 4 h (mouse, duodenum, 1 ug/mouse, BHK-GIPR tumor BALB/c nude mice, i.v., peptide dose 1 µg, 4 h p.i., mean n=5, read-out: Duodenum uptake): 0.75 %ID/g | tissue uptake at 4 h (mouse, duodenum, 2 ug/mouse, BHK-GIPR tumor BALB/c nude mice, i.v., peptide dose 2 µg, 4 h p.i., mean n=5, read-out: Duodenum uptake): 0.929 %ID/g | tissue uptake at 4 h (mouse, heart, 0.1 ug/mouse, BHK-GIPR tumor BALB/c nude mice, i.v., peptide dose 0.1 µg, 4 h p.i., mean n=5, read-out: Heart uptake): 0.133 %ID/g | tissue uptake at 4 h (mouse, heart, 0.2 ug/mouse, BHK-GIPR tumor BALB/c nude mice, i.v., peptide dose 0.2 µg, 4 h p.i., mean n=5, read-out: Heart uptake): 0.156 %ID/g | tissue uptake at 4 h (mouse, heart, 0.5 ug/mouse, BHK-GIPR tumor BALB/c nude mice, i.v., peptide dose 0.5 µg, 4 h p.i., mean n=5, read-out: Heart uptake): 0.163 %ID/g | tissue uptake at 4 h (mouse, heart, 1 ug/mouse, BHK-GIPR tumor BALB/c nude mice, i.v., peptide dose 1 µg, 4 h p.i., mean n=5, read-out: Heart uptake): 0.178 %ID/g | tissue uptake at 4 h (mouse, heart, 2 ug, BHK-GIPR tumor BALB/c nude mice, i.v., peptide dose 2 µg, 4 h p.i., mean n=5, read-out: Heart uptake): 0.173 %ID/g | tissue uptake at 4 h (mouse, kidney, 0.1 ug/mouse, BHK-GIPR tumor BALB/c nude mice, i.v., peptide dose 0.1 µg, 4 h p.i., mean n=5, read-out: Kidney uptake): 237 %ID/g | tissue uptake at 4 h (mouse, kidney, 0.2 ug/mouse, BHK-GIPR tumor BALB/c nude mice, i.v., peptide dose 0.2 µg, 4 h p.i., mean n=5, read-out: Kidney uptake): 265 %ID/g | tissue uptake at 4 h (mouse, kidney, 0.5 ug/mouse, BHK-GIPR tumor BALB/c nude mice, i.v., peptide dose 0.5 µg, 4 h p.i., mean n=5, read-out: Kidney uptake): 214 %ID/g | tissue uptake at 4 h (mouse, kidney, 1 ug/mouse, BHK-GIPR tumor BALB/c nude mice, i.v., peptide dose 1 µg, 4 h p.i., mean n=5, read-out: Kidney uptake): 287 %ID/g | tissue uptake at 4 h (mouse, kidney, 2 ug/mouse, BHK-GIPR tumor BALB/c nude mice, i.v., peptide dose 2 µg, 4 h p.i., mean n=5, read-out: Kidney uptake): 257 %ID/g | tissue uptake at 4 h (mouse, liver, 0.1 ug/mouse, BHK-GIPR tumor BALB/c nude mice, i.v., peptide dose 0.1 µg, 4 h p.i., mean n=5, read-out: Liver uptake): 1.6 %ID/g | tissue uptake at 4 h (mouse, liver, 0.2 ug/mouse, BHK-GIPR tumor BALB/c nude mice, i.v., peptide dose 0.2 µg, 4 h p.i., mean n=5, read-out: Liver uptake): 1.53 %ID/g | tissue uptake at 4 h (mouse, liver, 0.5 ug/mouse, BHK-GIPR tumor BALB/c nude mice, i.v., peptide dose 0.5 µg, 4 h p.i., mean n=5, read-out: Liver uptake): 1.55 %ID/g | tissue uptake at 4 h (mouse, liver, 1 ug/mouse, BHK-GIPR tumor BALB/c nude mice, i.v., peptide dose 1 µg, 4 h p.i., mean n=5, read-out: Liver uptake): 1.74 %ID/g | tissue uptake at 4 h (mouse, liver, 2 ug/mouse, BHK-GIPR tumor BALB/c nude mice, i.v., peptide dose 2 µg, 4 h p.i., mean n=5, read-out: Liver uptake): 1.83 %ID/g | tissue uptake at 4 h (mouse, lung, 0.1 ug, BHK-GIPR tumor BALB/c nude mice, i.v., peptide dose 0.1 µg, 4 h p.i., mean n=5, read-out: Lung uptake): 0.364 %ID/g | tissue uptake at 4 h (mouse, lung, 0.2 ug, BHK-GIPR tumor BALB/c nude mice, i.v., peptide dose 0.2 µg, 4 h p.i., mean n=5, read-out: Lung uptake): 0.518 %ID/g | tissue uptake at 4 h (mouse, lung, 0.5 ug, BHK-GIPR tumor BALB/c nude mice, i.v., peptide dose 0.5 µg, 4 h p.i., mean n=5, read-out: Lung uptake): 0.577 %ID/g | tissue uptake at 4 h (mouse, lung, 1 ug, BHK-GIPR tumor BALB/c nude mice, i.v., peptide dose 1 µg, 4 h p.i., mean n=5, read-out: Lung uptake): 0.608 %ID/g | tissue uptake at 4 h (mouse, lung, 2 ug, BHK-GIPR tumor BALB/c nude mice, i.v., peptide dose 2 µg, 4 h p.i., mean n=5, read-out: Lung uptake): 0.56 %ID/g | tissue uptake at 4 h (mouse, pancreas, 0.1 ug/mouse, BHK-GIPR tumor BALB/c nude mice, i.v., peptide dose 0.1 µg, 4 h p.i., mean n=5, read-out: Pancreas uptake): 0.169 %ID/g | tissue uptake at 4 h (mouse, pancreas, 0.2 ug/mouse, BHK-GIPR tumor BALB/c nude mice, i.v., peptide dose 0.2 µg, 4 h p.i., mean n=5, read-out: Pancreas uptake): 0.234 %ID/g | tissue uptake at 4 h (mouse, pancreas, 0.5 ug/mouse, BHK-GIPR tumor BALB/c nude mice, i.v., peptide dose 0.5 µg, 4 h p.i., mean n=5, read-out: Pancreas uptake): 0.199 %ID/g | tissue uptake at 4 h (mouse, pancreas, 1 ug/mouse, BHK-GIPR tumor BALB/c nude mice, i.v., peptide dose 1 µg, 4 h p.i., mean n=5, read-out: Pancreas uptake): 0.257 %ID/g | tissue uptake at 4 h (mouse, pancreas, 2 ug/mouse, BHK-GIPR tumor BALB/c nude mice, i.v., peptide dose 2 µg, 4 h p.i., mean n=5, read-out: Pancreas uptake): 0.213 %ID/g | tissue uptake at 4 h (mouse, spleen, 0.1 ug, BHK-GIPR tumor BALB/c nude mice, i.v., peptide dose 0.1 µg, 4 h p.i., mean n=5, read-out: Spleen uptake): 0.648 %ID/g | tissue uptake at 4 h (mouse, spleen, 0.2 ug, BHK-GIPR tumor BALB/c nude mice, i.v., peptide dose 0.2 µg, 4 h p.i., mean n=5, read-out: Spleen uptake): 0.692 %ID/g | tissue uptake at 4 h (mouse, spleen, 0.5 ug, BHK-GIPR tumor BALB/c nude mice, i.v., peptide dose 0.5 µg, 4 h p.i., mean n=5, read-out: Spleen uptake): 0.594 %ID/g | tissue uptake at 4 h (mouse, spleen, 1 ug, BHK-GIPR tumor BALB/c nude mice, i.v., peptide dose 1 µg, 4 h p.i., mean n=5, read-out: Spleen uptake): 0.781 %ID/g | tissue uptake at 4 h (mouse, spleen, 2 ug, BHK-GIPR tumor BALB/c nude mice, i.v., peptide dose 2 µg, 4 h p.i., mean n=5, read-out: Spleen uptake): 0.713 %ID/g | tissue uptake at 4 h (mouse, stomach, 0.1 ug/mouse, BHK-GIPR tumor BALB/c nude mice, i.v., peptide dose 0.1 µg, 4 h p.i., mean n=5, read-out: Stomach uptake): 0.41 %ID/g | tissue uptake at 4 h (mouse, stomach, 0.2 ug/mouse, BHK-GIPR tumor BALB/c nude mice, i.v., peptide dose 0.2 µg, 4 h p.i., mean n=5, read-out: Stomach uptake): 0.418 %ID/g | tissue uptake at 4 h (mouse, stomach, 0.5 ug/mouse, BHK-GIPR tumor BALB/c nude mice, i.v., peptide dose 0.5 µg, 4 h p.i., mean n=5, read-out: Stomach uptake): 0.411 %ID/g | tissue uptake at 4 h (mouse, stomach, 1 ug/mouse, BHK-GIPR tumor BALB/c nude mice, i.v., peptide dose 1 µg, 4 h p.i., mean n=5, read-out: Stomach uptake): 0.527 %ID/g | tissue uptake at 4 h (mouse, stomach, 2 ug/mouse, BHK-GIPR tumor BALB/c nude mice, i.v., peptide dose 2 µg, 4 h p.i., mean n=5, read-out: Stomach uptake): 0.437 %ID/g | tissue to tissue ratio at 4 h (mouse, tumor/blood, 2 ug/mouse, BHK-GIPR tumor BALB/c nude mice, i.v., peptide dose 2 µg, 4 h p.i., mean n=5): 38
